Assay results taken from BindingDB's records for doi:10.1021/acsmedchemlett.0c00651 (Philipps University, 2021).

Key:
Prothrombin = Prothrombin (Bos taurus, UniProt P00735); test: Inhibition of bovine thrombin using Tos-Gly-Pro-Arg-AMC as substrate by fluorescence assay
Plasminogen = Plasminogen (Homo sapiens, UniProt P00747); test: Inhibition pf human plasmin using Mes-Darg-Phe-Arg-AMC as substrate by fluorescence assay
Coagulation factor X = Coagulation factor X (Homo sapiens, UniProt P00742); test: Inhibition of human factor Xa using Mes-Darg-Pro-Arg-AMC as flurogenic substrate by fluorescence assay
Chain of Coagulation factor X (P00742 41-179 limits assumed): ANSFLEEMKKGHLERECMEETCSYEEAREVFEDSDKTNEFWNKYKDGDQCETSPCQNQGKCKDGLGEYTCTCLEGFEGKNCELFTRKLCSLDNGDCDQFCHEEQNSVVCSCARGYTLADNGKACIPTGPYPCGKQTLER
Chain of Coagulation factor X (P00742 235-488 limits assumed): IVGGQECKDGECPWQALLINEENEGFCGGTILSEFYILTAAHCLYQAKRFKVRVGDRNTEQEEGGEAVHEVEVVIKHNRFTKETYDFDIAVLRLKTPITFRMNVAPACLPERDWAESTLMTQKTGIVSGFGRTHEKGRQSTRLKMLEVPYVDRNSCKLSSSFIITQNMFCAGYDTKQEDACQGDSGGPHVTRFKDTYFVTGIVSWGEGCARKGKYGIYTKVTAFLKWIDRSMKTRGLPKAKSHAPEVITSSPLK

Measured: Ki

Chain of Plasminogen (P00747 97-580 limits assumed): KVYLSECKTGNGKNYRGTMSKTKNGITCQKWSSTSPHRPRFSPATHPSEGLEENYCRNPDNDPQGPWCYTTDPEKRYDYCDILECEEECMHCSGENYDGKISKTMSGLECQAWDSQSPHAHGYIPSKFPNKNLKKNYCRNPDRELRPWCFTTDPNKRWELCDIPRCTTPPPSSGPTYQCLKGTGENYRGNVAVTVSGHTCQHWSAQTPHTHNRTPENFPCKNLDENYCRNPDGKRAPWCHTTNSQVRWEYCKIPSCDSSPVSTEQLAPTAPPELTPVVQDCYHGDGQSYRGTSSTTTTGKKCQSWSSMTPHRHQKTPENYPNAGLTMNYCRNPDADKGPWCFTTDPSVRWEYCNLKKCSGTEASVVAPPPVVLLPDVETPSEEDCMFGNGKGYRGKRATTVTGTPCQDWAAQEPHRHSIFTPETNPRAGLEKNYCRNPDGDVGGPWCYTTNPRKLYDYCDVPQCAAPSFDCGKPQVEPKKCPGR
Chain of Plasminogen (P00747 581-810 limits assumed): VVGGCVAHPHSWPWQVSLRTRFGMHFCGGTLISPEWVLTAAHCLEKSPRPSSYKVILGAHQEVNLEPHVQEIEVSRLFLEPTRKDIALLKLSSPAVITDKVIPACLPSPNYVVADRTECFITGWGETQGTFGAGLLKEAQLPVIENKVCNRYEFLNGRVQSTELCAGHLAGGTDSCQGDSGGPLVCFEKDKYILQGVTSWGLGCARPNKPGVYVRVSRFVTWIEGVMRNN

CC(C)(C)[C@H](NC(=O)[C@H](CCONC(=N)N)NC(=O)Cc1ccc(CNC(=N)N)cc1)C(=O)N[C@@H](CCONC(=N)N)C(=O)NCc1ccc(C(=N)N)cc1
> 3000 nM: all assays above
